Source: US12077586B2, “Bispecific antibodies for use in the treatment of hematological malignancies” (LAVA THERAPEUTICS N.V., priority 2018, dated 2024)

Experiments:
[1] = test system: CD1d-transfected MM.1s cells; assay: VHH binding to CD1d-transfected MM.1s cells (flow cytometry); set-up: species or system human; details: read-out: apparent Kd
Vγ9Vδ2-T cells [2] = assay: Cytokine and degranulation assay, Vγ9Vδ2-T cells cocultured with Jeko-1 cells; type: cell-based, human; details: bispecific antibody alone, without target cells
Jeko-1 cells [3] = assay: Cytotoxicity assay with Vγ9Vδ2-T cell lines, Jeko-1 target cells; type: cell-based, human
Protocol: (§1) Target cells were then cocultured overnight with Vγ9Vδ2-T cell lines in a 1:1 ratio unless otherwise indicated. Viability was measured using Mitotracker Orange (25-minute incubation at 37° C., M7510) and To-pro-3 (10-minute incubation at room temperature; T3605, both Thermo Fisher Scientific).
(§2) If indicated, target cells were pretreated with 25 μM mevastatin (M2537, Sigma-Aldrich), 50 μM aminobisphosphonates (pamidronate, #12J08RD, TEVA Pharmachemie, Haarlem, the Netherlands) or medium control for 2 hours.
(§3) If indicated, cells were cultured with the indicated concentrations of all-trans retinoic acid (ATRA; R2625, Sigma-Aldrich) for 48 hours unless otherwise indicated. ATRA was washed away prior to cytotoxicity assays.
If indicated, target cells were pre-incubated with 5 μg/mL anti-CD1d mAb (clone 51.1, 350304, Biolegend, San Diego, CA, USA) and/or 10 μg/mL anti-CD277 mAb (clone 103.2, Creative Biolabs, Shirley, NY, USA) for 10 minutes.

[4] = test system: CD1d-transfected MM.1s cells; assay: Cytotoxicity assay with Vγ9Vδ2-T cell lines, CD1d-transfected MM.1s; type: cell-based, human; details: overnight coculture with Vγ9Vδ2-T cells
Protocol: (§4) (A) Specific lysis of Jeko-1 cell line (n=3). (B) CD1d expression on WT or CD1d-transfected MM.1s cell line (blank histogram: CD1d-stained, grey filled histogram: fluorescence minus one control). (C) Specific lysis of WT or CD1d-transfected MM.1s cell line (n=4). (D) Specific lysis of primary CLL cells with negative, low or high CD1d expression (n=4 per group). Specific lysis is calculated by correcting for background cell death in condition without Vγ9Vδ2-T cells. Data represent mean and SD. *P<0.05, **P<0.01, ****P<0.0001. (A: one-way ANOVA followed by Dunnett's post hoc test compared to untreated condition, C: two-way ANOVA followed by Sidak's post hoc test comparing WT vs CD1d for each concentration, D: two-way ANOVA followed by Tukey's post hoc test comparing each CD1d group for each concentration).
as §1

[5] = test system: wildtype CD1d-negative MM.1s cells; assay: Cytotoxicity assay with Vγ9Vδ2-T cell lines, wildtype MM.1s; type: cell-based, human; details: overnight coculture with Vγ9Vδ2-T cells
Protocol: as §4, §1

primary CLL cells = assay: Cytotoxicity assay with Vγ9Vδ2-T cell lines, primary CLL cells; type: cell-based
Protocol: as §4, §1, §3

[6] = test system: CLL patient-derived Vγ9Vδ2-T cells; assay: Activation, cytokine and degranulation assay with autologous CLL patient-derived Vγ9Vδ2-T cells; type: cell-based, human
Description: (§5) (A-C) Activation of and cytokine production and degranulation by patient-derived Vγ9Vδ2-T cells. […] (D) Lysis of primary CLL cells by autologous Vγ9Vδ2-T cells. […] Live CLL cells were quantified by flow cytometry using counting beads (n=5). (E) Expansion of patient-derived Vγ9Vδ2-T cells. […] Percentage Vγ9Vδ2-T cells after 1 week (n=8). Data are presented as mean and SD. *P<0.05, **P<0.01, ***P<0.001. (A-D: one-way ANOVA followed by Dunnett's post hoc test compared to medium control; E: paired t-test).

autologous CLL cells = assay: Cytotoxicity assay with patient-derived Vγ9Vδ2-T cells against autologous CLL cells; type: cell-based, human; details: 10 nM; CD3:PBMC 5:1 or 20:1
Description: as §5
For cytotoxicity assays performed with patient-derived Vγ9Vδ2-T cells, CD3^+ cells were enriched from patient PBMC by magnetic bead selection (130-050-101, Miltenyi Biotec; ≥90% purity). […] Viable cells were then quantified by fluorescence-labeled antibodies and viability dyes in combination with counting beads (01-1234-42, Thermo Fisher Scientific).

[7] = test system: CLL patient-derived Vγ9Vδ2-T cells; assay: Proliferation assay of CLL patient-derived Vγ9Vδ2-T cells; type: cell-based, human; details: 1 week
Description: as §5
For proliferation assays, PBMCs from CL patients were enriched for T cells by depletion of CD19^+ CLL cells. After attachment of irradiated (30Gy) […] fibroblasts to culture plates, T cell enriched PBMC (≤10% CD19^+) and purified CD19^+ (≥90% CD19^+) PBMC fractions were added in a 2:1 (CD19:CD19^+) ratio.

healthy B cells = assay: Mixed coculture cytotoxicity (Vγ9Vδ2-T cell: B cell: CLL cell 1:1:1), healthy B cells; type: cell-based, human; details: 6 hours
Protocol: (§6) (A) Specific lysis of Jeko-1 cells after pretreatment with mevastatin or pamidronate. […] (B) CD1d expression on B cells from healthy donor PBMCs. (C) Specific lysis of healthy B cells and CLL cells after pretreatment with ABP. Healthy B cells (isolated from healthy donor PBMCs, CFSE-labeled) and CLL cells (isolated from CLL PBMCs, CTV-labeled) were mixed in 1:1 ratio and pretreated with 50 μM pamidronate or medium control for 2 hours. […] (D) Specific lysis of Jeko-1 cells after blockade of CD1d or CD277. Jeko-1 cells were incubated with an anti-CD1d antibody (5 μg/mL), anti-CD277 antibody (10 μg/mL), anti-CD1d and anti-CD277 antibodies, or medium control for 10 minutes. […] Specific lysis is calculated by correcting for background cell death in condition without Vγ9Vδ2-T cells. Data represent mean and SD. *P<0.05, **P<0.01, ***P<0.001. (A: two-way ANOVA followed by Dunnett's post hoc test comparing control vs each pretreatment; C: two-way ANOVA followed by Sidak's post hoc test comparing untreated vs ABP pre-treated D: one-way ANOVA followed by Dunnett's post hoc test compared to medium control).
as §2
(§7) Healthy B cells express low levels of CD1d (FIG. 12B). […]

CLL cells = assay: Mixed coculture cytotoxicity (Vγ9Vδ2-T cell: B cell: CLL cell 1:1:1), CLL cells; type: cell-based, human; details: 6 hours
Protocol: as §6, §2, §7

[8] = test system: CD1d expression on Jeko-1 cells; assay: CD1d expression on Jeko-1 cells after ATRA treatment; type: cell-based, human; details: 48 hours
Protocol: (§8) (A) CD1d expression on Jeko-1 cells after 48 hours of ATRA treatment. (B) Time-curve of CD1d expression upon ATRA treatment (n=3). (C) Viability of Jeko-1 cells after 48 hours of treatment with 100 nM ATRA (n=4). (D) Lysis of Jeko-1 cells after pretreatment with ATRA. […] (E) CD1d expression on primary CLL cells after 48 hours of different concentrations of ATRA or medium control treatment (n=17). (F) Lysis of CLL cells after pretreatment with ATRA. […] Specific lysis is calculated by correcting for background cell death in condition without Vγ9Vδ2-T cells. Data represent mean and SD. *P<0.05, ***P<0.001, ****P<0.0001. (C: paired t-test; D, F: two-way ANOVA followed by Sidak's post hoc test comparing control vs ATRA-treated for each concentration; E: Friedman test followed by Dunnett's post hoc test compared to medium control).
(§9) Cells were stained with antibodies and viability dyes (Table 4) and measured on an LSR Fortessa or FACS Canto cytometer (BD Biosciences, Franklin Lakes, NJ, USA). Samples were analyzed with Flowjo MacV10. Cytofix/Cytoperm reagent was used for detection of intracellular cytokines (BD Biosciences). Relative CD1d expression is defined as geometric MFI (CD1d stained)—geometric MFI (fluorescence minus one).
If indicated, cells were cultured with the indicated concentrations of all-trans retinoic acid (ATRA; R2625, Sigma-Aldrich) for 48 hours unless otherwise indicated. […]

Jeko-1 cells [9] = assay: Viability of Jeko-1 cells after ATRA treatment; type: cell-based, human; details: 100 nM ATRA, 48 hours
Protocol: as §8, §3

[10] = test system: CD1d expression on primary CLL cells; assay: CD1d expression on primary CLL cells after ATRA treatment; type: cell-based, human; details: for Increase of CD1d levels: primary CLL cells, 48 hours
Protocol: as §8, §9, §3

Vδ2 chain = target: T1, Vδ2 chain (Homo sapiens, UniProt A0JD36); details: Mean Fluorescence Index class; γδ T-cells expressing Vδ2 chain paired with non Vγ9 chain; cited from earlier work
T1 construct: host or cells: γδ T-cells expressing a Vδ2 chain paired with a non-Vγ9 chain
T1 sequence (A0JD36 with tags, fused parts or gaps): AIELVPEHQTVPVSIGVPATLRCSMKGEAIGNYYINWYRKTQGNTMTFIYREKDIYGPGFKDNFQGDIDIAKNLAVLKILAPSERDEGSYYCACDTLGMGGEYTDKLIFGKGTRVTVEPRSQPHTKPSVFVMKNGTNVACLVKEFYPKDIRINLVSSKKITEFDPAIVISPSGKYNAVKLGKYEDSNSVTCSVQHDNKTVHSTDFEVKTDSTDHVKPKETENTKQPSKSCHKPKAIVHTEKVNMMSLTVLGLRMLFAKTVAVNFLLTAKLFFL
T1 sequence (P07766 23-207 partner): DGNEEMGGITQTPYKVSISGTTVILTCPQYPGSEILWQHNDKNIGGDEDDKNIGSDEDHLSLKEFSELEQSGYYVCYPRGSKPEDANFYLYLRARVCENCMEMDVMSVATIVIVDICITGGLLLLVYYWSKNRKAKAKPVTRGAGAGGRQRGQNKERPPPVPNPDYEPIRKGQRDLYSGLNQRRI
T1 sequence (P09693 23-182 partner): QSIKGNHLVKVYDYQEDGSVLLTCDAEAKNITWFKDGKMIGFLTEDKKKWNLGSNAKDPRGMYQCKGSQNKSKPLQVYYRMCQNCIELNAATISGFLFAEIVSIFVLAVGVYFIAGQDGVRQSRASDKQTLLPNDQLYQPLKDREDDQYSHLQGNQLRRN
T1 sequence (P04234 22-171 partner): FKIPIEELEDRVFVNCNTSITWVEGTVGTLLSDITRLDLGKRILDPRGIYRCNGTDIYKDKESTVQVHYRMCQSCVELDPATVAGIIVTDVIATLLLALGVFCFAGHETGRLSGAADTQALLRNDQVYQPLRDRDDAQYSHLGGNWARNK
T1 sequence (P20963 22-164 partner): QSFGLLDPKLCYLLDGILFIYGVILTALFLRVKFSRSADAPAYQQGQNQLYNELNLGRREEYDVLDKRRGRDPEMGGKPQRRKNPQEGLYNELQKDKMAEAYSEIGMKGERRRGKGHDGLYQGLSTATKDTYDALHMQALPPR

Vγ9 chain = target: T2, Vγ9 chain (Homo sapiens, UniProt Q99603, T7A); details: Mean Fluorescence Index class; γδ T-cells expressing Vγ9 chain paired with non Vδ2 chain; cited from earlier work
T2 construct: host or cells: γδ T-cells expressing a Vγ9 chain paired with a non-Vδ2 chain
T2 sequence (Q99603 with tags, fused parts or gaps T7A limits assumed): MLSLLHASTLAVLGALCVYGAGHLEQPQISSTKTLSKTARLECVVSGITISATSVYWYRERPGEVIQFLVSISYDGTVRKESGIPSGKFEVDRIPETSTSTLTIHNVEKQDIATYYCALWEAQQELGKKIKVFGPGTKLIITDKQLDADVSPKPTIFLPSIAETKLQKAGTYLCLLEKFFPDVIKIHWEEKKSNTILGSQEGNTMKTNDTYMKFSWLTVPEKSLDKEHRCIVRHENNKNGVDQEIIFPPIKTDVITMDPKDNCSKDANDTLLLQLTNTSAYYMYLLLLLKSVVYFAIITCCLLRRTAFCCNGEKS
T2 sequence (P07766 23-207 partner): as the sequence (P07766 23-207 partner) above
T2 sequence (P09693 23-182 partner): as the sequence (P09693 23-182 partner) above
T2 sequence (P04234 22-171 partner): as the sequence (P04234 22-171 partner) above
T2 sequence (P20963 22-164 partner): as the sequence (P20963 22-164 partner) above

complete Vγ9Vδ2 TCR = target: T3, complete Vγ9Vδ2 TCR (Homo sapiens, UniProt A0JD36+Q99603, T7A); details: Mean Fluorescence Index class; cited from earlier work
T3 construct: host or cells: γδ T-cells expressing the complete Vγ9Vδ2 TCR
T3 sequence (Q99603 with tags, fused parts or gaps T7A limits assumed): as the sequence (Q99603 with tags, fused parts or gaps T7A limits assumed) above
T3 sequence (A0JD36 with tags, fused parts or gaps, stated change not applied): as the sequence (A0JD36 with tags, fused parts or gaps) above
T3 sequence (P07766 23-207 partner): as the sequence (P07766 23-207 partner) above
T3 sequence (P09693 23-182 partner): as the sequence (P09693 23-182 partner) above
T3 sequence (P04234 22-171 partner): as the sequence (P04234 22-171 partner) above
T3 sequence (P20963 22-164 partner): as the sequence (P20963 22-164 partner) above

[11] = test system: γδ T-cells not expressing any of the Vγ9Vδ2 TCR chains; details: Mean Fluorescence Index class; cells not expressing any Vγ9Vδ2 TCR chain; cited from earlier work
Vγ9Vδ2-T cells [12] = details: previous work; cited from earlier work
[13] = 100 nM, overnight coculture with Vγ9Vδ2-T cells 1:1
[14] = 10 pM 1D7-5C8, with ABP (50 μM pamidronate pretreatment)

1D7-5C8: CD1d-Vδ2 bispecific VHH: 1D7 (N-terminal) joined to 5C8 (C-terminal) with Gly4Ser-linker, SEQ ID NO: 165
Kd [1]: 0.4 nM
IFN-γ production and degranulation of Vγ9Vδ2-T cells (Vγ9Vδ2-T cells [2]): did not produce IFN-γ and hardly degranulated
Lysis of Jeko-1 cells (Jeko-1 cells [3]; 10 pM 1D7-5C8 with CD1d-blocking antibody (5 μg/mL)): 13.7%±1.0
Lysis of Jeko-1 cells (Jeko-1 cells [3]; 10 pM 1D7-5C8 with CD1d and CD277 simultaneously blocked): 9.4%±0.8
Lysis of Jeko-1 cells (Jeko-1 cells [3]; 10 nM, overnight coculture with Vγ9Vδ2-T cells 1:1): 75.2%±21.0
Decline of 1D7-5C8-induced lysis (Jeko-1 cells [3]; CD1d and CD277 simultaneously blocked): 20.2%
Target cell lysis (Jeko-1 cells [3]; in the absence of Vγ9Vδ2-T cells): did not induce target cell lysis
Decrease of 1D7-5C8-induced lysis (Jeko-1 cells [3]; with CD1d-blocking antibody, on average): 15.9%
Lysis of CD1d+ MM.1s cells [4]: clearly increased lysis
Lysis of wildtype MM.1s cells [5]: had no effect on lysis of the wildtype cells
Lysis of CD1d high CLL cells (primary CLL cells; [13]): 74.5%±19.1
Lysis of CD1d low CLL cells (primary CLL cells; [13]): 49.3%±6.6
Upregulation of activation marker CD25 on patient Vγ9Vδ2-T cells ([6]; overnight culture of CLL PBMC, 1D7-5C8 50 nM): 20.8 fold
Cytokine production by patient-derived Vγ9Vδ2-T cells ([6]; overnight, 50 nM): induced production of IFN-γ and TNF-α
Degranulation of patient-derived Vγ9Vδ2-T cells ([6]; overnight, 50 nM): triggered Vγ9Vδ2-T cell degranulation
Lysis of autologous CLL cells by patient-derived Vγ9Vδ2-T cells (autologous CLL cells): enables autologous tumor lysis at relatively low E:T ratios
Percentage of Vγ9Vδ2-T cells within the T cell fraction ([7]; IL-2 50 IU/mL and 50 nM 1D7-5C8, baseline 1.2%): 5.6%±4.7
Percentage of Vγ9Vδ2-T cells with versus without antibody ([7]; IL-2 50 IU/mL, 50 nM 1D7-5C8): 3.1 fold
Lysis of healthy B cells (healthy B cells; 10 pM 1D7-5C8, no ABP): 4.8%±0.6
Lysis of healthy B cells (healthy B cells; [14]): 5.4%±4.5
Lysis of CLL cells (CLL cells; 10 pM 1D7-5C8, no ABP): 19.6%±4.8
Lysis of CLL cells (CLL cells; [14]): 25.1%±5.2

CC1=C(/C=C/C(C)=C/C=C/C(C)=C/C(=O)O)C(C)(C)CCC1 [ATRA, all-trans retinoic acid]
Sensitivity of ATRA-pretreated Jeko-1 cells to 1D7-5C8-induced cell death (Jeko-1 cells [3]; 100 nM ATRA 48 hours, then Vγ9Vδ2-T cells 1:2 plus 1D7-5C8): more sensitive to bispecific antibody 1D7-5C8-induced cell death than control Jeko-1 cells
Sensitivity of ATRA-pretreated primary CLL cells to 1D7-5C8-mediated cell death (primary CLL cells; 100 nM ATRA 48 hours, then Vγ9Vδ2-T cells 1:1 plus 1D7-5C8): did sensitize primary CLL cells to bispecific antibody 1D7-5C8-mediated cell death
ATRA concentration at which upregulation of CD1d expression was detectable [8]: 10 pM
Direct induction of cell death (Jeko-1 cells [9]): did not induce cell death directly
CD1d relative MFI ([10]; primary CLL cells after 100 nM ATRA): 504.6±366.0
Increase of CD1d levels ([10]; 1 nM ATRA): 2.6 fold
Increase of CD1d levels ([10]; 100 nM ATRA, on average): 3.7 fold

B1: 5C8: Vγ9Vδ2-specific VHH binding to the Vδ2 chain of the TCR, SEQ ID NO: 149 (protein)
VHH: EVQLVESGGGLVQAGGSLRLSCAASGRPFSNYAMGWFRQAPGKEREFVAAISWSGGSTSYADSVKGRFTISRDNAKNTVYLQMNSPKPEDTAIYYCAAQFSGADYGFGRLGIRGYEYDYWGQGTQVTVSS
modifications: antibody sequence
Binding, Vδ2+ (Vδ2 chain): ++ (“++” indicates an MFI above 20)
Binding, Vγ9+ (Vγ9 chain): − (“−” indicates a Mean Fluorescence Index (MFI) below 1.5)
Binding, Vγ9Vδ2+ (complete Vγ9Vδ2 TCR): ++ (“++” indicates an MFI above 20)
Binding, Vγ9Vδ2− [11]: − (“−” indicates a Mean Fluorescence Index (MFI) below 1.5)
Inhibition of phosphoantigen-CD277 mediated Vγ9Vδ2-T cell activation (Vγ9Vδ2-T cells [12]): not effective in inhibiting phosphoantigen-CD277 mediated Vγ9Vδ2-T cell activation
